Measurements taken from PubChem BioAssay AID330 (DTP/NCI, 2004).
Values joined by “and” are separate entries in the source; they are usually repeats but may differ in a detail not shown here. Equal values may be shown once. Toxic doses and inconclusive results are not listed. How the source made its calls: active means survival T/C of 150% or more; inactive means T/C below 125% in these data.

Tested on: P388 leukemia ip, CD2F1 mice, survival T/C
Assay: NCI In Vivo Anticancer Drug Screen. Data for tumor model P388 Leukemia (intraperitoneal) in CD2F1 (CDF1) mice
Details: endpoint: median survival time, higher = longer survival
Outline: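 Mice carrying the transplanted tumor received test compound or vehicle. Survival was recorded in each group, and the value is the treated-group measurement divided by that of the vehicle-treated control group.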

[1] = dose: 25.0 mg/kg/injection, schedule: Q01DX009 (ip), vehicle: saline
[2] = dose: 50.0 mg/kg/injection, schedule: Q01DX009 (ip), vehicle: saline
[3] = dose: 100.0 mg/kg/injection, schedule: Q01DX009 (ip), vehicle: saline
[4] = dose: 200.0 mg/kg/injection, schedule: Q01DX009 (ip), vehicle: saline
[5] = dose: 60.0 mg/kg/injection, schedule: Q01DX005 (ip), vehicle: saline with Tween-80
[6] = dose: 120.0 mg/kg/injection, schedule: Q01DX005 (ip), vehicle: saline with Tween-80
[7] = dose: 240.0 mg/kg/injection, schedule: Q01DX005 (ip), vehicle: saline with Tween-80
[8] = dose: 50.0 mg/kg/injection, schedule: Q01DX005 (ip), vehicle: saline
[9] = dose: 100.0 mg/kg/injection, schedule: Q01DX005 (ip), vehicle: saline
[10] = dose: 200.0 mg/kg/injection, schedule: Q01DX005 (ip), vehicle: saline

Measured: T/C

O=c1c2nccnc2nc2n1CCS2
inactive: dose: 100.0 mg/kg/injection, schedule: Q04DX003 (ip), vehicle: Klucel (hydroxypropylcellulose) (HPC) 100 % of control | dose: 200.0 mg/kg/injection, schedule: Q04DX003 (ip), vehicle: Klucel (hydroxypropylcellulose) (HPC) 101 % of control | dose: 400.0 mg/kg/injection, schedule: Q04DX003 (ip), vehicle: Klucel (hydroxypropylcellulose) (HPC) 107 % of control

C/C1=C/C(C)C(O)C(O)C(=O)C2(C)CNC3=C(O2)C(=O)c2c(cc(C)c(O)c2C1=O)C3=O (stereo not drawn)
inactive: dose: 0.5 mg/kg/injection, schedule: Q01DX009 (ip), vehicle: distilled water + Tween-80 102 % of control and 122 % of control | dose: 1.0 mg/kg/injection, schedule: Q01DX009 (ip), vehicle: distilled water + Tween-80 106 % of control and 117 % of control | dose: 2.0 mg/kg/injection, schedule: Q01DX009 (ip), vehicle: distilled water + Tween-80 108 % of control | dose: 4.0 mg/kg/injection, schedule: Q01DX009 (ip), vehicle: distilled water + Tween-80 102 % of control and 103 % of control | dose: 16.0 mg/kg/injection, schedule: Q01DX009 (ip), vehicle: distilled water + Tween-80 103 % of control and 107 % of control | dose: 32.0 mg/kg/injection, schedule: Q01DX009 (ip), vehicle: distilled water + Tween-80 101 % of control and 103 % of control | dose: 4.0 micrograms/kg/injection, schedule: Q01DX009 (ip), vehicle: water 115 % of control | dose: 8.0 micrograms/kg/injection, schedule: Q01DX009 (ip), vehicle: water 99 % of control | dose: 16.0 micrograms/kg/injection, schedule: Q01DX009 (ip), vehicle: water 98 % of control | dose: 32.0 micrograms/kg/injection, schedule: Q01DX009 (ip), vehicle: water 99 % of control | dose: 64.0 micrograms/kg/injection, schedule: Q01DX009 (ip), vehicle: saline + alcohol 100 % of control | dose: 64.0 micrograms/kg/injection, schedule: Q01DX009 (ip), vehicle: water 102 % of control | dose: 128.0 micrograms/kg/injection, schedule: Q01DX009 (ip), vehicle: saline + alcohol 100 % of control | dose: 256.0 micrograms/kg/injection, schedule: Q01DX009 (ip), vehicle: saline + alcohol 103 % of control

CCNC(C)(C)C(SSSC(c1ccc(Cl)cc1)C(C)(C)NCC)c1ccc(Cl)cc1 (stereo not drawn)
inactive: dose: 6.25 mg/kg/injection, schedule: Q01DX009 (ip), vehicle: saline 109 % of control | dose: 12.5 mg/kg/injection, schedule: Q01DX009 (ip), vehicle: saline 115 % of control | [1] 105 % of control | [2] 101 % of control

O=C1NS(=O)(=O)Oc2c1ccc1ccccc21
inactive: dose: 12.5 mg/kg/injection, schedule: Q01DX009 (ip), vehicle: saline with Tween-80 108 % of control | dose: 25.0 mg/kg/injection, schedule: Q01DX009 (ip), vehicle: saline with Tween-80 99 % of control | dose: 50.0 mg/kg/injection, schedule: Q01DX009 (ip), vehicle: saline with Tween-80 96 % of control | dose: 100.0 mg/kg/injection, schedule: Q01DX009 (ip), vehicle: saline with Tween-80 96 % of control | dose: 200.0 mg/kg/injection, schedule: Q01DX009 (ip), vehicle: saline with Tween-80 110 % of control

NC(=O)CC(N)CO (stereo not drawn)
inactive: [2] 100 % of control | [3] 100 % of control | [4] 103 % of control | dose: 400.0 mg/kg/injection, schedule: Q01DX009 (ip), vehicle: saline 101 % of control

COc1ccccc1NC(=O)C(N=Nc1ccc(-c2nc3ccc(C)c(S(=O)(=O)O)c3s2)cc1S(=O)(=O)O)C(C)=O (stereo not drawn)
inactive: [2] 104 % of control | [3] 105 % of control | [4] 109 % of control

C=CC#CC#Cc1ccc(C#CC)s1
inactive: dose: 12.5 mg/kg/injection, schedule: Q01DX009 (ip), vehicle: Klucel (hydroxypropylcellulose) (HPC) 96 % of control | dose: 25.0 mg/kg/injection, schedule: Q01DX009 (ip), vehicle: Klucel (hydroxypropylcellulose) (HPC) 100 % of control | dose: 50.0 mg/kg/injection, schedule: Q01DX009 (ip), vehicle: Klucel (hydroxypropylcellulose) (HPC) 105 % of control | dose: 100.0 mg/kg/injection, schedule: Q01DX009 (ip), vehicle: Klucel (hydroxypropylcellulose) (HPC) 104 % of control

COc1ccc(C(c2cc3c(cc2O)OCO3)N2CCN(C(c3ccc(OC)cc3)c3cc4c(cc3O)OCO4)CC2)cc1 (stereo not drawn)
inactive: [5] 87 % of control | [6] 92 % of control | [7] 87 % of control

O=C(O)c1ncc2ncccc2c1O
inactive: [2] 107 % of control | [3] 104 % of control | [4] 101 % of control

BrCc1cn2ccccc2n1
inactive: [1] 92 % of control | [2] 100 % of control | [3] 104 % of control

C(=Nc1ccncc1)c1c[nH]c2ccccc12
inactive: dose: 3.12 mg/kg/injection, schedule: Q01DX001 (ip), vehicle: Klucel (hydroxypropylcellulose) (HPC) 104 % of control | dose: 6.25 mg/kg/injection, schedule: Q01DX001 (ip), vehicle: Klucel (hydroxypropylcellulose) (HPC) 98 % of control | dose: 12.5 mg/kg/injection, schedule: Q01DX001 (ip), vehicle: Klucel (hydroxypropylcellulose) (HPC) 101 % of control and 104 % of control

O=C(O)c1cc(Br)ccc1OCc1cccc(Cl)c1
inactive: dose: 25.0 mg/kg/injection, schedule: Q04DX003 (ip), vehicle: saline with Tween-80 101 % of control | dose: 50.0 mg/kg/injection, schedule: Q04DX003 (ip), vehicle: saline with Tween-80 98 % of control

CN(C)CC1CCCC(CN(C)C)C1O (stereo not drawn)
inactive: [8] 99 % of control | [9] 94 % of control | [10] 93 % of control

COC(=O)C(=O)C(C)C(=O)C(C)c1nc(NC(=O)Nc2ccc(Cl)cc2)n[nH]1 (stereo not drawn)
inactive: [5] 101 % of control | [6] 101 % of control | [7] 100 % of control

COCC12CN(C)C3C4C(OC)C1C3(C(OC)CC2O)C1CC2(O)C(OC)C(O)C4(OC(C)=O)C1C2OC(=O)c1ccccc1 (stereo not drawn)
inactive: dose: 0.09 mg/kg/injection, schedule: Q01DX005 (ip), vehicle: Klucel (hydroxypropylcellulose) (HPC) 100 % of control | dose: 12.0 micrograms/kg/injection, schedule: Q01DX005 (ip), vehicle: Klucel (hydroxypropylcellulose) (HPC) 91 % of control | dose: 24.0 micrograms/kg/injection, schedule: Q01DX005 (ip), vehicle: Klucel (hydroxypropylcellulose) (HPC) 98 % of control and 101 % of control | dose: 48.0 micrograms/kg/injection, schedule: Q01DX005 (ip), vehicle: Klucel (hydroxypropylcellulose) (HPC) 100 % of control and 101 % of control

CCCCCC(=O)NCC(=O)OC
inactive: [8] 100 % of control | [9] 101 % of control | [10] 100 % of control

CCOP(=O)(OCC)C1OCC(O)C(C2OC(P(=O)(OCC)OCC)OCC2O)O1 (stereo not drawn)
inactive: [2] 109 % of control | [3] 112 % of control | [4] 112 % of control

COC(=O)C(Br)CN1C(=O)c2ccccc2C1=O (stereo not drawn)
inactive: dose: 25.0 mg/kg/injection, schedule: Q01DX009 (ip), vehicle: other 102 % of control | dose: 50.0 mg/kg/injection, schedule: Q01DX009 (ip), vehicle: other 101 % of control | dose: 100.0 mg/kg/injection, schedule: Q01DX009 (ip), vehicle: other 106 % of control | dose: 200.0 mg/kg/injection, schedule: Q01DX009 (ip), vehicle: other 104 % of control | dose: 400.0 mg/kg/injection, schedule: Q01DX009 (ip), vehicle: other 104 % of control

COc1ccc2sc(-c3ccccc3)cc(=O)c2c1
inactive: dose: 50.0 mg/kg/injection, schedule: Q01DX005 (ip), vehicle: Klucel (hydroxypropylcellulose) (HPC) 100 % of control | dose: 100.0 mg/kg/injection, schedule: Q01DX005 (ip), vehicle: Klucel (hydroxypropylcellulose) (HPC) 101 % of control | dose: 200.0 mg/kg/injection, schedule: Q01DX005 (ip), vehicle: Klucel (hydroxypropylcellulose) (HPC) 101 % of control

CC1(C)C(C(=O)/C=C2\Nc3ccccc3C2(C)C)=Nc2ccccc21
inactive: dose: 60.0 mg/kg/injection, schedule: Q01DX005 (ip), vehicle: Klucel (hydroxypropylcellulose) (HPC) 102 % of control | dose: 120.0 mg/kg/injection, schedule: Q01DX005 (ip), vehicle: Klucel (hydroxypropylcellulose) (HPC) 91 % of control | dose: 240.0 mg/kg/injection, schedule: Q01DX005 (ip), vehicle: Klucel (hydroxypropylcellulose) (HPC) 98 % of control

C/C=C/CC1(C)N=C1c1ccccc1 (stereo not drawn)
inactive: dose: 100.0 mg/kg/injection, schedule: Q01DX001 (ip), vehicle: Klucel (hydroxypropylcellulose) (HPC) 99 % of control | dose: 200.0 mg/kg/injection, schedule: Q01DX001 (ip), vehicle: Klucel (hydroxypropylcellulose) (HPC) 99 % of control | dose: 400.0 mg/kg/injection, schedule: Q01DX001 (ip), vehicle: Klucel (hydroxypropylcellulose) (HPC) 102 % of control

CCOC(OCC)C(C)(C)CNC
inactive: dose: 100.0 mg/kg/injection, schedule: Q01DX001 (ip), vehicle: saline sonified 109 % of control | dose: 200.0 mg/kg/injection, schedule: Q01DX001 (ip), vehicle: saline sonified 113 % of control
